Entries after “also recorded” stand apart in the source; their conditions may differ.

A short description of data set [1]: Staining of mouse rib sections with the dyes, epifluorescence microscopy. Conditions: for dependence of fluorescence intensity of rib staining on incubation time: 10 to 120 mins; for dependence of fluorescence intensity of rib staining on dye concentration: 1, 0.1 and 0.01 mg/mL in HEPES; for HAP-associated staining / binding to HAP in rib sections: 1 mg/mL. The format is binding, mouse (C57BL/6). On the procedure:
Mouse ribs (C57BL/6) were fixed in 4% paraformaldehyde (PFA). Ribs were processed for wax embedding through sequential immersion in increasing concentrations of ethanol followed by immersion in xylene/clearene and paraffin wax embedding. Rib sections (6 μm thickness) were dewaxed with xylene and rehydrated with decreasing concentrations of ethanol and distilled water (dH2O). Rib sections were incubated with a variety of either namely((4-(5,5-difluoro-1,3,7,9-tetramethyl-5H-414,514-dipyrrolo[1,2-c:2′,1′-f][1,3,2]diazaborinin-10-yl)phenyl)phosphonic acid) (BODIPY-PPA), 5,10,15,20-tetrakis[p-phenylphosphonicacid] porphyrin (p-H8TPPA) and 5,10,15,20-tetrakis[m-phenylphosphonic acid] porphyrin (m-H8TPPA) dyes. […] Meso-tetra(4-phosphorylphenyl)porphine, porph-tetra-meta-phenyl phosphonate, BODIPY-PPA; and BODIPY-PPA-2Et2 were all incubated for 120 mins when diluted to 1, 0.1 and 0.01 mg/mL in HEPES, and incubated at 1 mg/mL for 120, 60, 30, 20 and 10 mins. Images were obtained for up to two weeks after staining. p-H8TPPA-iPr8 and p-TBr3PPA-iPr2 were only incubated for 120 mins at 1 mg/mL, including an incubation with dimethyl sulfoxide (DMSO). Negative controls were included by incubating ribs with the buffers alone. Following incubation with the respective dyes, slides were washed with their respective buffers (3×5 mins) and counter stained with DAPI, diluted in PBS, for 20 mins. After washing with PBS (3×5 mins), slides were mounted with 70% glycerol, diluted in PBS. Images were acquired on a Leica DM5500 epifluorescent microscope, using a 20× objective. The exposure times used to capture these images were kept the same throughout imaging. Images were processed using the FIJI software.
To further probe their HAP binding properties, we have used laterally sectioned mouse ribs as an example of HAP, which were incubated with p-H8TPPA at concentrations ranging from 0.01 to 1.0 mg/mL in HEPES buffer for varying times at room temperature and imaged by fluorescence microscopy (for details see description of the figures), to assess HAP binding capability.

Data set [2] deals with intestinal Caco-2 cell line. Particulars: at high concentrations; cited from earlier work.
Data set [3] can be described thus: Absorbance and fluorescence spectra in presence and absence of HAP (Flexstation 3 microplate reader). It is filed as binding. On the procedure:
The absorbance (A) and fluorescence (B) spectra of 0.01 mg mL^−1p-H8TPPA in the presence (dashed lines) and absence (solid lines) of HAP. The dye was diluted to 0.01 mg mL^−1 in PBS (pH 7.4, green), TBS (pH 7.4, orange), HEPES (pH 7.4, purple) and d H2O with absorbance and fluorescence spectra obtained using the Flexstation 3 microplate reader.
Characterization of Probes: The structure and purity of the probes were characterized by liquid chromatography, infrared, NMR, and/or mass spectrometry. Their optical properties were characterized by absorption and fluorescence spectrophotometry in the presence and absence of authentic hydroxyapatite, whitlockite, and other doped apatites. The dyes were also tested on mouse ribs as an example of hydroxyapatite in tissue.
This is also reflected in the maximal peak of the fluorescence intensity (FIG. 14 B), with a shift from λem 646-648 nm for PBS, TBS and HEPES to λem 675 nm when diluted in dH2O. […] Previously reported bisphosphonate fluorophores had […] aliphatic carbons between the fluorescent core and HAP binding, therefore, such systems merely functioned as fluorescent labels with no change in emission due to HAP binding since they lacked synergistic interaction between the HAP and the fluorescent core. Phosphonic acids that have direct sp^2 bonds to the fluorescent core could extend the conjugation of the fluorescent core to the HAP and thereby could initiate changes in the ground and excited states resulting in quenching or enhancing the fluorescence emission.

The next data set has as its system THP-1 monocytes. The experiment in a line: Cellular uptake / cell labeling of proliferating THP-1 monocytes, fluorescence emission scan. Conditions: loading buffer, 60 min, 420 nm excitation. It is filed as cell-based, human. On the procedure: In addition to the application on bone sections, the phenylphosphonic acid/esterified porphyrins' propensity for cellular uptake was tested on proliferating human cells (FIG. 15). Aiming to use phenylphosphonic acid functionalized porphyrins in in vivo applications, the negative charge on the deprotonated phosphonate might be a handicap by limiting cell permeability. Optional demasking of phosphonate esters in metabolic surroundings might occur, recreating the metal binding PhPO3^2-. This possibility led us to examine p-H8TPPA and p-H8TPPA-iPr8 suitability for in vivo cellular experiments by testing their permeability on proliferating human THP-1 monocytes.
We have treated THP-1 monocytes with the Phosphorylphenyl-modified porphyrins in loading buffer (10 mM HEPES, pH 7.35, 120 mM NaCl, 5.4 mM KCl, 5 mM glucose, 1.3 mM CaCl2, 1 mM MgCl2, 1 mM NaH2PO4, 0.3% bovine serum albumin) for 60 min. Excess fluorescence dye was removed by multiple washing steps before fluorescence emission scanning using 420 nm excitation (Tecan Infinite M200 reader; Tecan, Germany). […] We hypothesize that the phosphonates, being somewhat amphipathic, were able to penetrate the cell membrane, whereas the more nonpolar esters were not as efficient.

Data set [4] can be described thus: Precipitation / solubility of the dye in incubation buffers. On the procedure:
Mouse ribs were incubated for 120 mins with p-TBr3PPA-iPr2 (5,10,15-tris[p-bromophenyl]-20-[p-phenyl-, bis(1-methylethyl) ester phosphonic acid] porphyrin) diluted to 1 mg/mL in different buffers.
Mouse ribs were incubated for 120 mins with p-H8TPPA-iPr8 phosphonate diester diluted to 1 mg/mL in different buffers.

The mark [5] stands for this setting: 1 mg/mL in HEPES, 120 mins, imaged up to 14 days / two weeks after staining.

Regarding `O=P(O)(O)c1cccc(-c2c3nc(c(-c4cccc(P(=O)(O)O)c4)c4ccc([nH]4)c(-c4cccc(P(=O)(O)O)c4)c4nc(c(-c5cccc(P(=O)(O)O)c5)c5ccc2[nH]5)C=C4)C=C3)c1` [m-H8TPPA, 5,10,15,20-tetrakis[m-phenylphosphonic acid] porphyrin], in data set [1] (1 mg/mL in HEPES), the “dependence of fluorescence intensity of rib staining on incubation time” value (“dependence … on incubation time” below) is recorded as “no clear difference in fluorescence intensity”. For the same compound, the “change of fluorescence intensity after staining” value (shortened to “change of fluorescence intensity”) in data set [1] (setting [5]) is recorded as “no noticeable decrease in fluorescence intensity”. In addition, the “dependence of fluorescence intensity of rib staining on dye concentration” value (“dependence … on dye concentration” below) in data set [1] (120 mins) is on record as “little to no difference in the fluorescent intensity”. Further, in data set [1] (compared to p-H8TPPA), the “duration of fluorescence of stained ribs” value is “longer fluorescence period”.

In the case of `O=P(O)(O)c1ccc(-c2c3nc(c(-c4ccc(P(=O)(O)O)cc4)c4ccc([nH]4)c(-c4ccc(P(=O)(O)O)cc4)c4nc(c(-c5ccc(P(=O)(O)O)cc5)c5ccc2[nH]5)C=C4)C=C3)cc1` [p-H8TPPA, 5,10,15,20-tetrakis[p-phenylphosphonic acid] porphyrin], the “toxicity for an intestinal cell line” value in data set [2] is reported as “no toxicity”. The “fluorescence intensity upon HAP binding” value in data set [3] is “increased”. Moreover, the “increase of fluorescence intensity upon HAP binding” value in data set [3] (0.01 mg mL^-1 in HEPES pH 7.4) is on record as 2.0 fold; in data set [3] (0.01 mg mL^-1 in PBS pH 7.4) it was 1.8 fold; in data set [3] (0.01 mg mL^-1 in TBS pH 7.4), 2.0 fold; in data set [3] (0.01 mg mL^-1 in d H2O) it was 1.6 fold. Also, the “maximal peak of the fluorescence intensity (λem)” value in data set [3] (PBS, TBS and HEPES) was 646-648 nm; in data set [3] (diluted in dH2O), 675 nm. For the same compound, the absorbance peak maximum came out at 415 nm in data set [3] (PBS, TBS and HEPES (before shift)); 435 nm in data set [3] (diluted in dH2O). The “fluorescent signal of stained ribs” value in data set [1] (0.1 mg/mL in HEPES) was “clear fluorescent signal”; in data set [1] (1 mg/mL diluted in dH2O) it was “no fluorescent signal”. The “dependence … on incubation time” value in data set [1] (1 mg/mL in HEPES) is on record as “clear increase in fluorescence intensity with an increasing incubation time”. The “difference of fluorescence intensity between buffers” value in data set [1] (1 mg/mL in HEPES, PBS, TBS) is “no clear difference”. The “change of fluorescence intensity” value in data set [1] (1 mg/mL in HEPES, day of staining vs 7 days later) is listed as “noticeable decrease in fluorescence intensity”. Also, in data set [1] (1 mg/mL in HEPES, incubated for 10 mins), the “fluorescent signal of stained ribs compared to HEPES only negative control” value was “clear fluorescent signal”. In data set [1] (120 mins), the “HAP-associated staining / binding to HAP in rib sections” value (“HAP-associated staining / binding” for short) is given as “specific for hydroxyapatite”. In addition, in data set [1] (120 mins), the “dependence … on dye concentration” value is on record as “binds to HAP with a concentration dependence”. Besides, the “fluorescent signal after staining” value was “weak fluorescent signal” in data set [1] (diluted in PBS, after two weeks); “fluorescent signal above background signal” in data set [1] (diluted in PBS, one week after staining); “fluorescent signal above background signal” in data set [1] (diluted in TBS, one week after staining). Further, the “cell labeling / passage through the cellular membrane” value in the data set on THP-1 monocytes is recorded as “much more efficient in cell labeling; also recorded: can travel through the cellular membrane”.

Take `CC(C)OP(=O)(OC(C)C)c1ccc(-c2c3nc(c(-c4ccc(P(=O)(OC(C)C)OC(C)C)cc4)c4ccc([nH]4)c(-c4ccc(P(=O)(OC(C)C)OC(C)C)cc4)c4nc(c(-c5ccc(P(=O)(OC(C)C)OC(C)C)cc5)c5ccc2[nH]5)C=C4)C=C3)cc1` [p-H8TPPA-iPr8]: the “solubility in the aqueous” value in data set [4] is “dramatically reduced their solubilities”. The “HAP-associated staining / binding” value in data set [1] (120 mins) was “no binding to HAP occurring; also recorded: complete lack of HAP-associated staining”. In addition, the “cell labeling / passage through the cellular membrane” value with THP-1 monocytes is “hindered their passage through the cellular membrane”.

On to `CC(C)OP(=O)(OC(C)C)c1ccc(-c2c3nc(c(-c4ccc(Br)cc4)c4ccc([nH]4)c(-c4ccc(Br)cc4)c4nc(c(-c5ccc(Br)cc5)c5ccc2[nH]5)C=C4)C=C3)cc1` [p-TBr3PPA-iPr2, 5,10,15-tris[p-bromophenyl]-20-[p-phenyl-, bis(1-methylethyl) esterphosphonic acid] porphyrin], for which, in data set [4] (1 mg/mL in DMSO), the “behaviour of the dye during incubation” value was “precipitation of the dye”. The “behaviour of the dye during the incubation period” value in data set [4] (1 mg/mL in HEPES, PBS, TBS and dH2O, 120 mins) is reported as “precipitated”. For the same compound, the “HAP-associated staining / binding” value in data set [1] (120 mins) is “lack of HAP-associated staining; also recorded: no binding to HAP occurring”.

As to “((4-(5,5-difluoro-1,3,7,9-tetramethyl-5H-414,514-dipyrrolo[1,2-c:2′,1′-f][1,3,2]diazaborinin-10-yl)phenyl)phosphonic acid) [BODIPY-PPA]”, the “dependence … on incubation time” value in data set [1] (1 mg/mL in HEPES) is “decrease in fluorescence intensity is observed for decreasing incubation times”. Further, in data set [1] (setting [5]), the “change of fluorescence intensity” value was “only a very slight decrease in fluorescence intensity”. The “dependence … on dye concentration” value in data set [1] (120 mins) is “strong concentration dependency of staining”.

Source of the values: patent US20230110824A1, “FLUORESCENT PROBES FOR DETECTION OF CALCIFICATIONS” (TECHNISCHE UNIVERSITÄT BERLIN, priority 2020, published 2023).
